Experimental findings from ChEMBL document CHEMBL1152891, “Design of novel aminopyrrolidine factor Xa inhibitors from a screening hit” (Eur J Med Chem, 2009) are described below.

Converted amounts (≈) assume the structure as drawn.

The nature of data set [1]: Lipophilicity, log D of the compound. It is filed as physicochemical. The following applies: octanol/water.
The nature of data set [2]: Aqueous solubility of the compound. It counts as physicochemical.
Data set [3] can be described thus: Permeability across cell membrane. It counts as ADME. The following applies: not told; read-out: permeability.
Data set [4] can be described thus: Volume of distribution at steady state in rat at 0.5 mg, iv. It is filed as ADME, organism-based. The following applies: in vivo, read-out: Vdss.
A short description of data set [5]: Tmax in rat at 1 mg, po. The following applies: in vivo. It is filed as ADME, organism-based.
The nature of data set [6]: Oral bioavailability in rat at 1 mg, po. It counts as ADME, organism-based. The following applies: in vivo.
The nature of data set [7]: Volume of distribution at steady state in rat at 1 mg, iv. It is filed as ADME, organism-based. The following applies: in vivo, read-out: Vdss.

Consider `CN1CCC(N2CCN(C(=O)Cc3csc(NC(=O)c4ccc(Cl)s4)n3)CC2)CC1`, for which the logD in data set [1] amounted to 1. Moreover, the solubility in data set [2] (aqueous, read-out: solubility) was above 620 µg/mL.

Molecule `O=C(Nc1nc(CC(=O)N2CCN(CC(=O)N3CCCC3)CC2)cs1)c1ccc(Cl)s1` registered a logD in data set [1] of 2.1. Besides, the solubility in data set [2] (aqueous, read-out: solubility) was above 640 µg/mL.

`O=C(CN1C[C@H](NC(=O)c2ccc(Cl)s2)[C@@H](O)C1)Nc1ccc(-n2ccccc2=O)cc1F` had a solubility in data set [2] (buffer) of 516 µg/mL (≈ 1050 µM). The Papp in data set [3] worked out at 1.5 ×10⁻⁶ cm/s. Also, the Vd in data set [4] turned out to be 1.1 L/kg. Moreover, the Tmax in data set [5] came to 15 min. In data set [6], the bioavailability came out at 38%.

Take `O=C(CN1CC[C@@H](NC(=O)c2ccc(Cl)s2)C1)Nc1ccc(-n2ccccc2=O)cc1F`: in data set [1], the logD amounted to 2.3. The solubility in data set [2] (aqueous, read-out: solubility) came out at 197 µg/mL (≈ 415 µM).

Consider `O=C(Cn1nnc(NC(=O)c2ccc(Cl)s2)n1)Nc1ccc(-n2ccccc2=O)cc1F`, for which the logD in data set [1] was 2.4. For the same molecule, the solubility in data set [2] (aqueous, read-out: solubility) was below 1 µg/mL.

Take `O=C(CN1C[C@H](NC(=O)c2ccc(Cl)s2)[C@@H](OCCO)C1)Nc1ccc(-n2ccccc2=O)cc1F`: the logD in data set [1] is 1.6. Further, the solubility in data set [2] (buffer) is above 713 µg/mL. In addition, the Papp in data set [3] was 0.4 ×10⁻⁶ cm/s. The Vd in data set [7] stood at 1.1 L/kg. Also, the Tmax in data set [5] turned out to be 15 min. The bioavailability in data set [6] amounted to 16%.

Consider `O=C(Cc1csc(NC(=O)c2ccc(Cl)cc2)n1)Nc1ccc(-n2ccccc2=O)cc1F`, for which the logD in data set [1] is above 3. In addition, the solubility in data set [2] (aqueous, read-out: solubility) is below 1 µg/mL.

As to `CN1CCC(N2CCN(C(=O)Cn3ccc(NC(=O)c4ccc(Cl)s4)n3)CC2)CC1`, the logD in data set [1] was 0.1. Moreover, in data set [2] (aqueous, read-out: solubility), the solubility is above 601 µg/mL.

`O=C(Cn1ccc(NC(=O)c2ccc(Cl)s2)n1)Nc1ccc(-n2ccccc2=O)cc1F` came in with a log distribution coefficient (logD) in data set [1] above 3. Further, the solubility in data set [2] (aqueous, read-out: solubility) is below 1 µg/mL.

Consider `O=C(Nc1nc(CC(=O)N2CCN(CC(=O)N3CCCC3)CC2)cs1)c1ccc(Cl)cc1`, for which, in data set [1], the logD worked out at 2.2. Moreover, the solubility in data set [2] (aqueous, read-out: solubility) was above 580 µg/mL.

In the case of `CN1CCC(N2CCN(C(=O)Cc3csc(NC(=O)c4ccc(Cl)cc4)n3)CC2)CC1`, the logD in data set [1] amounted to 0.6. The solubility in data set [2] (aqueous, read-out: solubility) is above 620 µg/mL.

In data set [1], `O=C(Cc1csc(NC(=O)c2ccc(Cl)s2)n1)Nc1ccc(-n2ccccc2=O)cc1F` registered a logD above 3. In data set [2] (aqueous, read-out: solubility), the solubility was below 1 µg/mL.

With `O=C(Cn1cnc(NC(=O)c2ccc(Cl)s2)n1)Nc1ccc(-n2ccccc2=O)cc1F`, the logD in data set [1] was 2.4. Moreover, in data set [2] (aqueous, read-out: solubility), the solubility was 1 µg/mL (≈ 2.11 µM). For the same molecule, in data set [3], the Papp worked out at 0.9 ×10⁻⁶ cm/s. For the same molecule, the Vd in data set [4] stood at 0.3 L/kg. Moreover, in data set [5], the Tmax came to 66 min. The bioavailability in data set [6] turned out to be 10%.

In data set [1], `CN1CCC(N2CCN(C(=O)Cn3cnc(NC(=O)c4ccc(Cl)s4)n3)CC2)CC1` returned a logD of -0.5. In addition, the solubility in data set [2] (aqueous, read-out: solubility) is above 600 µg/mL.

For `O=C(CN1CC[C@H](NC(=O)c2ccc(Cl)s2)C1)Nc1ccc(-n2ccccc2=O)cc1F`, in data set [1], the logD was found to be 2.3. Moreover, in data set [2] (aqueous, read-out: solubility), the solubility was 166 µg/mL (≈ 350 µM).
